In ChEMBL document CHEMBL1152667, “Synthesis and radiopharmacological investigation of 3-[4'-[(18)F]fluorobenzylidene]indolin-2-one as possible tyrosine kinase inhibitor” (Bioorg Med Chem, 2009):

What was measured:
[1] = Biodistribution in Wistar rat hair/skin assessed as standard uptake value at 1.7 MBq, iv administered as single dose measured after 60 mins post-injection by gamma counting; assay type: ADME, organism-based; conditions: in vivo, 1 h
Kidney [2] = assay: Biodistribution in Wistar rat kidney assessed as standard uptake value at 1.7 MBq, iv administered as single dose measured after 10 mins post-injection by gamma counting; assay type: ADME, organism-based; conditions: in vivo
[3] = Biodistribution in Wistar rat thyroid gland assessed as standard uptake value at 1.7 MBq, iv administered as single dose measured after 10 mins post-injection by gamma counting; assay type: ADME, organism-based; conditions: in vivo
Heart [4] = assay: Biodistribution in Wistar rat heart at 1.7 MBq, iv administered as single dose measured after 1 min post-injection by gamma counting; assay type: ADME, organism-based; conditions: in vivo
Testes [5] = assay: Biodistribution in Wistar rat testes at 1.7 MBq, iv administered as single dose measured after 60 mins post-injection by gamma counting; assay type: ADME, organism-based, Testis; conditions: in vivo, 1 h
Lung [6] = assay: Biodistribution in Wistar rat lung assessed as standard uptake value at 1.7 MBq, iv administered as single dose measured after 60 mins post-injection by gamma counting; assay type: ADME, organism-based; conditions: in vivo, 1 h
Muscle tissue = assay: Biodistribution in Wistar rat muscle assessed as standard uptake value at 1.7 MBq, iv administered as single dose measured after 1 min post-injection by gamma counting; assay type: ADME, organism-based; conditions: in vivo
Thymus [7] = assay: Biodistribution in Wistar rat thymus assessed as standard uptake value at 1.7 MBq, iv administered as single dose measured after 60 mins post-injection by gamma counting; assay type: ADME, organism-based; conditions: in vivo, 1 h
Spleen [8] = assay: Biodistribution in Wistar rat spleen assessed as standard uptake value at 1.7 MBq, iv administered as single dose measured after 30 mins post-injection by gamma counting; assay type: ADME, organism-based; conditions: in vivo, 0.5 h
[9] = Metabolic stability in Wistar rat plasma assessed as compound remaining at 0.5 MBq after 60 mins by radio-HPLC analysis; assay type: ADME, cell-free; conditions: read-out: Stability
Heart [10] = assay: Biodistribution in Wistar rat heart assessed as standard uptake value at 1.7 MBq, iv administered as single dose measured after 30 mins post-injection by gamma counting; assay type: ADME, organism-based; conditions: in vivo, 0.5 h
[11] = Biodistribution in Wistar rat hair/skin assessed as standard uptake value at 1.7 MBq, iv administered as single dose measured after 10 mins post-injection by gamma counting; assay type: ADME, organism-based; conditions: in vivo
Intestine = assay: Biodistribution in Wistar rat intestine at 1.7 MBq, iv administered as single dose measured after 60 mins post-injection by gamma counting; assay type: ADME, organism-based; conditions: in vivo, 1 h
Heart [12] = assay: Biodistribution in Wistar rat heart at 1.7 MBq, iv administered as single dose measured after 60 mins post-injection by gamma counting; assay type: ADME, organism-based; conditions: in vivo, 1 h
Adrenal gland [13] = assay: Biodistribution in Wistar rat adrenal gland assessed as standard uptake value at 1.7 MBq, iv administered as single dose measured after 5 mins post-injection by gamma counting; assay type: ADME, organism-based; conditions: in vivo
Femur [14] = assay: Biodistribution in Wistar rat femur assessed as standard uptake value at 1.7 MBq, iv administered as single dose measured after 1 min post-injection by gamma counting; assay type: ADME, organism-based; conditions: in vivo
Femur [15] = assay: Biodistribution in Wistar rat femur at 1.7 MBq, iv administered as single dose measured after 60 mins post-injection by gamma counting; assay type: ADME, organism-based; conditions: in vivo, 1 h
Harderian gland [16] = assay: Biodistribution in Wistar rat harderian gland assessed as standard uptake value at 1.7 MBq, iv administered as single dose measured after 10 mins post-injection by gamma counting; assay type: ADME, organism-based; conditions: in vivo
Adrenal gland [17] = assay: Biodistribution in Wistar rat adrenal gland assessed as standard uptake value at 1.7 MBq, iv administered as single dose measured after 60 mins post-injection by gamma counting; assay type: ADME, organism-based; conditions: in vivo, 1 h
[18] = Ratio of drug level in brain to blood in Wistar rat at 1.7 MBq, iv administered as single dose measured after 5 mins post-injection; assay type: ADME, organism-based
[19] = Metabolic stability in Wistar rat blood assessed as compound remaining at 0.5 MBq after 60 mins by radio-HPLC analysis; assay type: ADME, tissue-based; conditions: read-out: Stability
[20] = Biodistribution in Wistar rat brown adipose tissue assessed as standard uptake value at 1.7 MBq, iv administered as single dose measured after 10 mins post-injection by gamma counting; assay type: ADME, organism-based; conditions: in vivo
Testes [21] = assay: Biodistribution in Wistar rat testes assessed as standard uptake value at 1.7 MBq, iv administered as single dose measured after 60 mins post-injection by gamma counting; assay type: ADME, organism-based, Testis; conditions: in vivo, 1 h
Blood = assay: Biodistribution in Wistar rat blood assessed as standard uptake value at 1.7 MBq, iv administered as single dose measured after 30 mins post-injection by gamma counting; assay type: ADME, organism-based; conditions: in vivo, 0.5 h
Harderian gland [22] = assay: Biodistribution in Wistar rat harderian gland assessed as standard uptake value at 1.7 MBq, iv administered as single dose measured after 1 min post-injection by gamma counting; assay type: ADME, organism-based; conditions: in vivo
[23] = Biodistribution in Wistar rat adipose tissue assessed as standard uptake value at 1.7 MBq, iv administered as single dose measured after 1 min post-injection by gamma counting; assay type: ADME, organism-based; conditions: in vivo
Femur [24] = assay: Biodistribution in Wistar rat femur at 1.7 MBq, iv administered as single dose measured after 10 mins post-injection by gamma counting; assay type: ADME, organism-based; conditions: in vivo
Adrenal gland [25] = assay: Biodistribution in Wistar rat adrenal gland at 1.7 MBq, iv administered as single dose measured after 30 mins post-injection by gamma counting; assay type: ADME, organism-based; conditions: in vivo, 0.5 h
[26] = Metabolic stability in Wistar rat blood assessed as compound remaining at 30 MBq, iv after 10 mins by radio-HPLC analysis; assay type: ADME, organism-based; conditions: read-out: Stability
[27] = Biodistribution in Wistar rat adipose tissue assessed as standard uptake value at 1.7 MBq, iv administered as single dose measured after 5 mins post-injection by gamma counting; assay type: ADME, organism-based; conditions: in vivo
Kidney [28] = assay: Biodistribution in Wistar rat kidney at 1.7 MBq, iv administered as single dose measured after 5 mins post-injection by gamma counting; assay type: ADME, organism-based; conditions: in vivo
Adrenal gland [29] = assay: Biodistribution in Wistar rat adrenal gland assessed as standard uptake value at 1.7 MBq, iv administered as single dose measured after 30 mins post-injection by gamma counting; assay type: ADME, organism-based; conditions: in vivo, 0.5 h
Kidney [30] = assay: Biodistribution in Wistar rat kidney assessed as standard uptake value at 1.7 MBq, iv administered as single dose measured after 1 min post-injection by gamma counting; assay type: ADME, organism-based; conditions: in vivo
Kidney [31] = assay: Biodistribution in Wistar rat kidney assessed as standard uptake value at 1.7 MBq, iv administered as single dose measured after 5 mins post-injection by gamma counting; assay type: ADME, organism-based; conditions: in vivo
Femur [32] = assay: Biodistribution in Wistar rat femur assessed as standard uptake value at 1.7 MBq, iv administered as single dose measured after 30 mins post-injection by gamma counting; assay type: ADME, organism-based; conditions: in vivo, 0.5 h
Lung [33] = assay: Biodistribution in Wistar rat lung assessed as standard uptake value at 1.7 MBq, iv administered as single dose measured after 1 min post-injection by gamma counting; assay type: ADME, organism-based; conditions: in vivo
[34] = Ratio of drug level in kidney to blood in Wistar rat at 1.7 MBq, iv administered as single dose measured after 5 mins post-injection; assay type: ADME, organism-based
Lung [35] = assay: Biodistribution in Wistar rat lung assessed as standard uptake value at 1.7 MBq, iv administered as single dose measured after 10 mins post-injection by gamma counting; assay type: ADME, organism-based; conditions: in vivo
Spleen [36] = assay: Biodistribution in Wistar rat spleen assessed as standard uptake value at 1.7 MBq, iv administered as single dose measured after 1 min post-injection by gamma counting; assay type: ADME, organism-based; conditions: in vivo
Thymus [37] = assay: Biodistribution in Wistar rat thymus assessed as standard uptake value at 1.7 MBq, iv administered as single dose measured after 30 mins post-injection by gamma counting; assay type: ADME, organism-based; conditions: in vivo, 0.5 h
Liver = assay: Biodistribution in Wistar rat liver assessed as standard uptake value at 1.7 MBq, iv administered as single dose measured after 10 mins post-injection by gamma counting; assay type: ADME, organism-based; conditions: in vivo

SMILES: O=C1Nc2ccccc2/C1=C/c1ccc([18F])cc1
- SUV [1]: 0.19%
- SUV (Kidney [2]): 2.27%
- SUV [3]: 0.75%
- Drug uptake (Heart [4]): 1.01 %ID
- Drug uptake (Testes [5]): 0.24 %ID
- SUV (Lung [6]): 0.27%
- SUV (Muscle tissue): 0.82%
- SUV (Thymus [7]): 0.13%
- SUV (Spleen [8]): 0.28%
- remaining at 1 h, 0.5 MBq [9]: 96%
- SUV (Heart [10]): 0.44%
- SUV [11]: 0.74%
- Drug uptake (Intestine): 30.16 %ID
- Drug uptake (Heart [12]): 0.08 %ID
- SUV (Adrenal gland [13]): 5.71%
- SUV (Femur [14]): 0.89%
- Drug uptake (Femur [15]): 0.11 %ID
- SUV (Harderian gland [16]): 1.91%
- SUV (Adrenal gland [17]): 1.11%
- Kp at 5 min [18]: 3
- remaining at 1 h, 0.5 MBq [19]: 84%
- SUV [20]: 1.83%
- SUV (Testes [21]): 0.19%
- SUV (Blood): 0.27%
- SUV (Harderian gland [22]): 1.92%
- SUV [23]: 0.7%
- Drug uptake (Femur [24]): 0.32 %ID
- Drug uptake (Adrenal gland [25]): 0.04 %ID
- remaining at 10 min [26]: 18%
- SUV [27]: 1.21%
- Drug uptake (Kidney [28]): 2.51 %ID
- SUV (Adrenal gland [29]): 1.39%
- SUV (Kidney [30]): 3.36%
- SUV (Kidney [31]): 2.64%
- SUV (Femur [32]): 0.28%
- SUV (Lung [33]): 4.26%
- Kp at 5 min [34]: 4.7
- SUV (Lung [35]): 0.85%
- SUV (Spleen [36]): 0.98%
- SUV (Thymus [37]): 0.26%
- SUV (Liver): 3.03%
